Where two headings read alike, the source gives them in different places.
Key:
in vitro = type: cell-based; details: human, HepG2 or HepG2.117 cells, ATPlite, mean value
Outline: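 Luminescent ATP quantitation served as the viability endpoint following a 3- or 4-day incubation with test compounds.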

[1] = tested on: HBV (HepG2.117 cell line, inducibly HBV producing); test: Anti-HBV activity: intracellular HBV DNA by real-time PCR in HepG2.117 cells after 3 days of treatment; type: cell-based, hepatitis B virus
Outline: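 Tet-off HepG2.117; HBV replication induced (no doxycycline); serial compound dilutions, 3 d; intracellular HBV DNA by real-time PCR, HBV-specific primers/probe.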

[2] = 3-days incubation (unmarked values)
[3] = Hepatitis B virus, HepG2.117, 72 h, HepG2.117 cells, 3 days of treatment, intracellular HBV DNA by real-time PCR; mean value; read-out: EC50 (μM, mean value)
[4] = 3-days incubation (not marked with *)
[5] = Hepatitis B virus, HepG2.117, 72 h, HepG2.117 cells, intracellular HBV DNA by real-time PCR, 3 days of treatment, mean value; read-out: EC50 (μM, mean value)

Structure (SMILES) | CC50 at 3 days (in vitro; [2]) | EC50 [1, 3] | CC50 at 3 days (in vitro; [4]) | EC50 [1, 5]
CNC(=O)c1ccc(-n2c(NCc3c[nH]c4ccc(OC)cc34)nc3c(c2=O)C[C@@H](C)N(C(=O)c2ccc(Cl)c(Cl)c2)C3)cc1 [Compound C275, 4-[(6R)-7-(3,4-dichlorobenzoyl)-2-{[(5-methoxy-1H-indol-3-yl)methyl]amino}-6-methyl-4-oxo-5,6,7,8-tetrahydropyrido[3,4-d]pyrimidin-3(4H)-yl]-N-methylbenzamide] | > 50 µM | 1.58 µM |  | 
CC(C)Nc1nc2c(c(=O)n1-c1ccc(S(C)(=O)=O)cc1)CCN(C(=O)c1cc3cc(F)ccc3[nH]1)C2 [Compound C136, 7-(5-fluoro-1H-indole-2-carbonyl)-3-[4-(methanesulfonyl)phenyl]-2-[(propan-2-yl)amino]-5,6,7,8-tetrahydropyrido[3,4-d]pyrimidin-4(3H)-one] | > 50 µM | 0.24 µM |  | 
CNC(=O)c1ccc(-n2c(NC(C)C)nc3c(c2=O)C[C@@H](C)N(C(=O)c2ccc(Cl)c(C)c2)C3)cc1 [Compound C429] |  |  | > 50 µM | 0.06 µM
CNC(=O)c1ccc(-n2c(N[C@@H](C)c3ccc4[nH]ccc4c3)nc3c(c2=O)C[C@@H](C)N(C(=O)c2ccc(Cl)c(Cl)c2)C3)cc1 (single isomer, unassigned) [Compound C449b] |  |  | 46.4 µM | 0.2 µM
COc1ccccc1-n1c(NCc2ccc(Cl)cc2Cl)nc2c(c1=O)CCN(C(=O)c1ccc(Cl)c(Cl)c1)C2 [Compound C30, 7-(3,4-dichlorobenzoyl)-2-{[(2,4-dichlorophenyl)methyl]amino}-3-(2-methoxyphenyl)-5,6,7,8-tetrahydropyrido[3,4-d]pyrimidin-4(3H)-one] | > 50 µM | > 50 µM |  | 
COc1ccc(CNc2nc3c(c(=O)n2-c2ccc(N4CCOCC4C(=O)O)cc2)CCN(C(=O)c2ccc(Cl)c(Cl)c2)C3)cc1 (stereo not drawn) [Compound C159, 4-{4-[7-(3,4-dichlorobenzoyl)-2-{[(4-methoxyphenyl)methyl]amino}-4-oxo-5,6,7,8-tetrahydropyrido[3,4-d]pyrimidin-3(4H)-yl]phenyl}morpholine-3-carboxylic acid] | > 50 µM | 23.1 µM |  | 
CC(C)Nc1nc2c(c(=O)n1-c1ccc(-c3cn[nH]c3)cc1)CCN(C(=O)c1ccc(Cl)c(Cl)c1)C2 [Compound C186, 7-(3,4-dichlorobenzoyl)-2-[(propan-2-yl)amino]-3-[4-(1H-pyrazol-4-yl)phenyl]-5,6,7,8-tetrahydropyrido[3,4-d]pyrimidin-4(3H)-one] | > 50 µM | 0.51 µM |  | 
CC(C)Nc1nc2c(c(=O)n1-c1ccncc1)CCN(C(=O)c1ccc(Cl)c(Cl)c1)C2 [Compound C122, 7-(3,4-dichlorobenzoyl)-2-[(propan-2-yl)amino]-3-(pyridin-4-yl)-5,6,7,8-tetrahydropyrido[3,4-d]pyrimidin-4(3H)-one] | > 50 µM | 1.44 µM |  | 
CNC(=O)c1ccc(-n2c(NC(C)C)nc3c(c2=O)C[C@@H](C)N(C(=O)c2cc(F)c(Cl)cc2F)C3)cc1 [Compound C498] |  |  | > 50 µM | 2.92 µM
CNC(=O)[C@H]1CC[C@@H](n2c(N[C@@H](C)c3ccc(C(F)(F)F)cc3)nc3c(c2=O)C[C@@H](C)N(C(=O)c2ccc(Cl)c(Cl)c2)C3)CC1 [Compound C644] |  |  | 7.5 µM | 0.23 µM
CNC(=O)c1cc(C)c(-n2c(NC(C)C)nc3c(c2=O)C[C@@H](C)N(C(=O)c2ccc(Cl)c(Cl)c2)C3)c(C)c1 [Compound C391] |  |  | > 50 µM | 0.18 µM
CNC(=O)c1ccc(-n2c(N[C@@H](C)C(C)(C)C)nc3c(c2=O)C[C@@H](C)N(C(=O)c2ccc(Cl)c(Cl)c2)C3)cc1 (single isomer, unassigned) [Compound C459b] |  |  | 32.5 µM | 0.63 µM
